Measurements: patent US20240263159A1, “GENE EDITING IN PRIMARY IMMUNE CELLS USING CELL PENETRATING CRISPR-CAS SYSTEM” (THE TRUSTEES OF THE UNIVERSITY OF PENNSYLVANIA, priority 2021, published 2024)

Experiments:
[1] = test system: 8.7 kb DNA fragment; assay: in vitro DNA cleavage assay; assay type: biochemical; details: Cas9 RNP with sgRNA, 37° C.
Description: Cas9 RNPs were assembled by incubating purified spCas9 or TAT-4×Myc NLS-Cas9 with sgRNA targeting a 8.7 kb DNA fragment, and incubated with the DNA fragment for 1, 5, 10, and 15 min at 37° C. The reaction was stopped and the DNA products were separated on a 0.8% agarose gel. Uncut band (˜8.7 kb) and two cleaved bands (˜2.7 kb and 6 kb) are shown on the gel.
TAT-4×Myc NLS-Cas9 expression construct was created by replacing the 4×SV40 NLS (PKKKRKV (SEQ ID NO: 1423)) at the N-terminus of Cas9 (Staahl et al., (2017) Nat Biotechnol 35, 431-434) with 4×Myc NLS ([…] (SEQ ID NO: 1)) with linker -G-G-S- between Myc NLS. The sequence of the TAT cell penetrating peptide ([…] (SEQ ID NO: 2)), derived from the trans-activating transcriptional activator (Tat) from HIV-1 (Frankel and Pabo, 1988; Green and Loewenstein, 1988), was added to the N-terminus, and TAT-4×Myc NLS-Cas9 was cloned into a bacterial recombinant protein expression vector (Gootenberg et al., 2017) with a Twin-Strep and SUMO tag (FIG. 1A). Next, TAT-4×Myc NLS-Cas9 protein was purified by Strep-Tactin affinity chromatography followed by on-column SUMO protease digestion, ion exchange chromatography (IEC), and size exclusion chromatography (SEC) (FIG. 1B) (Gootenberg et al., (2017) Science 356, 438-442).

[2] = test system: CD45.2; assay: in vitro editing in mouse primary CD8 T cells, CD45.2 knockdown by flow cytometry; assay type: cell-based; details: CD45.2 sgRNA_1, 5 μM TAT-4×Myc NLS-Cas9, 75 μM dTAT-HA2, Day 4
Description: FIG. 3C: An example of flow plots showing the percentage of sgRNA+Cas9+ for Rosa and CD45.2.
FIG. 3D: Target genes are knocked down during Days 1-5 in vitro culture as measured by flow cytometry.
RN2-Cas9 cells were infected with retrovirus expressing sgRNA and mCherry, and CD45.2 expression level was measured by flow cytometry after 3 days of infection. Both sgRNAs targeting CD45.2 efficiently knocked down CD45.2 compared to sgRNAs targeting Rosa26 (FIG. 3A). It was next tested whether TAT-4×Myc Cas9 can edit the genome in mouse primary CD8 T cells. Briefly, on Day −2, primary CD8 T cells were isolated from 3-month-old mouse spleen and activated by CD3, […], and IL-2 for 24 hours. On Day −1, the activated cells were infected with retrovirus expressing sgRNA and mCherry for 24 hours. Cells were then treated with 5 μM TAT-4×Myc NLS-Cas9 (with GFP tag) and 75 μM dTAT-HA2, and incubated in RPMI 1640 supplied with 1% FBS and 50 μM 2-mercaptoethanol in a 37° C. incubator for 40 min. […] CD45.2 expression level was measured by flow cytometry from Day 1 to Day 5. […] The stability of TAT-4×Myc NLS-Cas9 was evaluated in the cells by measuring normalized Mean Fluorescence Intensity (MFI) of GFP.

[3] = test system: CD90.2; assay: in vitro editing in mouse primary CD8 T cells, CD90.2 knockdown by flow cytometry; assay type: cell-based
[4] = test system: PD-1; details: mouse, in vivo
[5] = test system: EL4 mCherry reporter cell line; assay: EL4 mCherry reporter gene editing, loss of mCherry by flow cytometry; details: 5 μM TAT-4×Myc NLS-Cas9, 75 μM dTAT-HA2, 30 min, no FBS
[6] = test system: Thy1 and Ptprc genes; assay: Cas9-PAGE with retroviral sgRNA in murine primary CD8 T cells ex vivo (flow cytometry, TIDE assay); assay type: cell-based; details: sgThy1_IG1 or sgNeg, various concentrations of TH, 5 μM Cas9-T6N^CPP, 30 min
Description: FIG. 12A: A schematic of the experimental workflow of evaluating the PAGE system in murine primary CD8 T cells ex vivo. Murine primary T cells were activated with anti-CD3, anti-CD28 and IL-2, followed by retroviral transduction with a sgRNA expression vector linked with mCherry fluorescent marker. […] Gene editing was evaluated at various time points by flow cytometry against indicated gene products or via direct sanger sequencing of the targeted genomic regions. […] Cells were transduced with either sgThy1_IG1 or sgNeg, followed by 30 min incubation with various concentrations of TH and 5 μM Cas9-T6N^CPP. Flow cytometry analysis was performed at the indicated days post-treatment. […] FIG. 12C: Mean Fluorescent Intensity (MFI) quantification of the flow cytometry analysis at 4 days post-treatment in FIG. 12B (left panel). […] FIG. 12E: Quantification of live cell recovery of CD8 T cells treated with an increased concentration of TH. […] Genomic DNA was isolated at day 6 post-treatment of PAGE, sanger sequenced, and followed by quantification via an online TIDE analysis tool. sgThy1_IG1, sgThy1_IG2, sgThy1_IG3, sgRNAs targeting the Immunoglobulin domain of Thy1 gene; sgPtprc_CAT1 and sgPtprc_TM1, sgRNAs targeting either the catalytic domain or transmembrane domain of Ptprc gene; sgNeg, an sgRNA targeting Ano9 gene was used as a negative control here. […]

Substance | DNA cleavage [1] | percentage of CD45.2 knockdown cells, maximum [2] | percentage of CD90.2 knockdown cells, maximum ([3]; CD90.2 sgRNA_2, 5 μM TAT-4×Myc NLS-Cas9, 75 μM dTAT-HA2, Day 3) | percentage of CD90.2 knockdown cells, maximum ([3]; CD90.2 sgRNA_3, 5 μM TAT-4×Myc NLS-Cas9, 75 μM dTAT-HA2, Day 3) | PD-1 expression [4] | percentage of sgRNA^+P14 T cell population and total number of sgRNA^+P14 T cells [4] | percentage of mCherry^− cells [5] | Cas9-T6N^CPP gene editing in murine primary CD8 T cells [6]
TAT-4×NLS^MYC-Cas9-2×NLS^SV40-sfGFP [TAT-4×Myc NLS-Cas9] | efficiently cleaved DNA | ~60% | ~90% | ~70% | ~20% | increased | 92.9% | –
dTAT-HA2 [TH] | – | – | – | – | – | – | – | promoted Cas9-T6N^CPP gene editing
